Laboratory results published in patent US12186304B2, “Method for treating cancer by combination of IAP inhibitor and modulator of immune checkpoint molecule” (ASCENTAGE PHARMA (SUZHOU) CO., LTD., priority 2018, dated 2025).

Experiments:
[1] = Phase I study: APG-1387 pharmacokinetics in plasma (LC-MS/MS); type: in vivo, human
Procedure: APG-1387 was IV administered for 30 minutes once weekly in a 21-day-cycle.

[2] = Phase I study (NCT03386526): safety and tolerability
Procedure: The Phase I dose escalation study included two parts.
Pembrolizumab was administered 200 mg IV on day 1 of a 21-day-cycle, until disease progression or untolerated toxicity.
The inclusion criteria for the Phase I study are: Age≥18 years; ECOG PS: 0-1;
Adequate hematologic, renal and liver functions; Advanced or metastatic solid tumor patients must be refractory to or intolerant of existing therapy(ies) known to provide clinical benefit for their condition.

[3] = over the range of 20 to 45 mg, preliminary PK data

SMILES: CN[C@@H](C)C(=O)N[C@H]1CN(S(=O)(=O)c2cccc(S(=O)(=O)N3CC[C@H]4CC[C@@H](C(=O)NC(c5ccccc5)c5ccccc5)N4C(=O)[C@@H](NC(=O)[C@H](C)NC)C3)c2)CC[C@H]2CC[C@@H](C(=O)NC(c3ccccc3)c3ccccc3)N2C1=O [APG-1387]
- increase in AUC [1, 3]: approximately dose proportional
- increase in Cmax [1, 3]: approximately dose proportional
- accumulation ([1]; weekly dosing regimen): no significant accumulation
- G3 above TRAEs: G3 blood bilirubin increased ([2]; 60 mg monotherapy): one
- G3 above TRAEs: lipase increased ([2]; 60 mg monotherapy): one
- # of pts discontinued treatment: Adverse Event ([2]; APG-1387 20 mg): 0
- # of pts discontinued treatment: Clinical progression ([2]; APG-1387 20 mg): 0
- # of pts discontinued treatment: Disease progression ([2]; APG-1387 20 mg): 2
- # of pts discontinued treatment: Lack of efficacy ([2]; APG-1387 20 mg): 1
- TRAEs (all Grades): Aspartate aminotransferase increased, patients ([2]; APG-1387 20 mg): 0
- TRAEs (all Grades): Bell's palsy, patients ([2]; APG-1387 20 mg): 0
- TRAEs (all Grades): Blood bilirubin increased, patients ([2]; APG-1387 20 mg): 0
- TRAEs (all Grades): Decreased appetite, patients ([2]; APG-1387 20 mg): 0
- TRAEs (all Grades): Dehydration, patients ([2]; APG-1387 20 mg): 0
- TRAEs (all Grades): Diarrhoea, patients ([2]; APG-1387 20 mg): 0
- TRAEs (all Grades): Dyspepsia, patients ([2]; APG-1387 20 mg): 0
- TRAEs (all Grades): Eructation, patients ([2]; APG-1387 20 mg): 0
- TRAEs (all Grades): Fatigue, patients ([2]; APG-1387 20 mg): 0
- TRAEs (all Grades): Headache, patients ([2]; APG-1387 20 mg): 0
- TRAEs (all Grades): Lipase increased, patients ([2]; APG-1387 20 mg): 0
- TRAEs (all Grades): Myalgia, patients ([2]; APG-1387 20 mg): 0
- TRAEs (all Grades): Nausea, patients ([2]; APG-1387 20 mg): 0
- TRAEs (all Grades): Peripheral sensory neuropathy, patients ([2]; APG-1387 20 mg): 0
- TRAEs (all Grades): Phlebitis, % of patients ([2]; APG-1387 20 mg): (33.3%)
- TRAEs (all Grades): Phlebitis, patients ([2]; APG-1387 20 mg): 1
- TRAEs (all Grades): Pneumonitis, patients ([2]; APG-1387 20 mg): 0
- TRAEs (all Grades): Pruritus, % of patients ([2]; APG-1387 20 mg): (33.3%)
- TRAEs (all Grades): Pruritus, patients ([2]; APG-1387 20 mg): 1
- TRAEs (all Grades): Rash maculo-papular, % of patients ([2]; APG-1387 20 mg): (33.3%)
- TRAEs (all Grades): Rash maculo-papular, patients ([2]; APG-1387 20 mg): 1
- TRAEs (all Grades): Tumor pain, patients ([2]; APG-1387 20 mg): 0
- # of pts discontinued treatment: Adverse Event ([2]; APG-1387 30 mg): 0
- # of pts discontinued treatment: Clinical progression ([2]; APG-1387 30 mg): 0
- # of pts discontinued treatment: Disease progression ([2]; APG-1387 30 mg): 3
- # of pts discontinued treatment: Lack of efficacy ([2]; APG-1387 30 mg): 0
- TRAEs (all Grades): Aspartate aminotransferase increased, patients ([2]; APG-1387 30 mg): 0
- TRAEs (all Grades): Bell's palsy, patients ([2]; APG-1387 30 mg): 0
- TRAEs (all Grades): Blood bilirubin increased, patients ([2]; APG-1387 30 mg): 0
- TRAEs (all Grades): Decreased appetite, patients ([2]; APG-1387 30 mg): 0
- TRAEs (all Grades): Dehydration, patients ([2]; APG-1387 30 mg): 0
- TRAEs (all Grades): Diarrhoea, % of patients ([2]; APG-1387 30 mg): (33.3%)
- TRAEs (all Grades): Diarrhoea, patients ([2]; APG-1387 30 mg): 1
- TRAEs (all Grades): Dyspepsia, patients ([2]; APG-1387 30 mg): 0
- TRAEs (all Grades): Eructation, patients ([2]; APG-1387 30 mg): 0
- TRAEs (all Grades): Fatigue, patients ([2]; APG-1387 30 mg): 0
- TRAEs (all Grades): Headache, % of patients ([2]; APG-1387 30 mg): (33.3%)
- TRAEs (all Grades): Headache, patients ([2]; APG-1387 30 mg): 1
- TRAEs (all Grades): Lipase increased, patients ([2]; APG-1387 30 mg): 0
- TRAEs (all Grades): Myalgia, patients ([2]; APG-1387 30 mg): 0
- TRAEs (all Grades): Nausea, % of patients ([2]; APG-1387 30 mg): (33.3%)
- TRAEs (all Grades): Nausea, patients ([2]; APG-1387 30 mg): 1
- TRAEs (all Grades): Peripheral sensory neuropathy, patients ([2]; APG-1387 30 mg): 0
- TRAEs (all Grades): Phlebitis, patients ([2]; APG-1387 30 mg): 0
- TRAEs (all Grades): Pneumonitis, patients ([2]; APG-1387 30 mg): 0
- TRAEs (all Grades): Pruritus, patients ([2]; APG-1387 30 mg): 0
- TRAEs (all Grades): Rash maculo-papular, patients ([2]; APG-1387 30 mg): 0
- TRAEs (all Grades): Tumor pain, patients ([2]; APG-1387 30 mg): 0
- # of pts discontinued treatment: Adverse Event ([2]; APG-1387 45 mg): 1
- # of pts discontinued treatment: Clinical progression ([2]; APG-1387 45 mg): 1
- # of pts discontinued treatment: Disease progression ([2]; APG-1387 45 mg): 8
- # of pts discontinued treatment: Lack of efficacy ([2]; APG-1387 45 mg): 1
- TRAEs (all Grades): Aspartate aminotransferase increased, % of patients ([2]; APG-1387 45 mg): (7.7%)
- TRAEs (all Grades): Aspartate aminotransferase increased, patients ([2]; APG-1387 45 mg): 1
- TRAEs (all Grades): Bell's palsy, % of patients ([2]; APG-1387 45 mg): (7.7%)
- TRAEs (all Grades): Bell's palsy, patients ([2]; APG-1387 45 mg): 1
- TRAEs (all Grades): Blood bilirubin increased, patients ([2]; APG-1387 45 mg): 0
- TRAEs (all Grades): Decreased appetite, % of patients ([2]; APG-1387 45 mg): (15.4%)
- TRAEs (all Grades): Decreased appetite, patients ([2]; APG-1387 45 mg): 2
- TRAEs (all Grades): Dehydration, % of patients ([2]; APG-1387 45 mg): (7.7%)
- TRAEs (all Grades): Dehydration, patients ([2]; APG-1387 45 mg): 1
- TRAEs (all Grades): Diarrhoea, patients ([2]; APG-1387 45 mg): 0
- TRAEs (all Grades): Dyspepsia, % of patients ([2]; APG-1387 45 mg): (7.7%)
- TRAEs (all Grades): Dyspepsia, patients ([2]; APG-1387 45 mg): 1
- TRAEs (all Grades): Eructation, patients ([2]; APG-1387 45 mg): 0
- TRAEs (all Grades): Fatigue, % of patients ([2]; APG-1387 45 mg): (23.1%)
- TRAEs (all Grades): Fatigue, patients ([2]; APG-1387 45 mg): 3
- TRAEs (all Grades): Headache, patients ([2]; APG-1387 45 mg): 0
- TRAEs (all Grades): Lipase increased, patients ([2]; APG-1387 45 mg): 0
- TRAEs (all Grades): Myalgia, % of patients ([2]; APG-1387 45 mg): (7.7%)
- TRAEs (all Grades): Myalgia, patients ([2]; APG-1387 45 mg): 1
- TRAEs (all Grades): Nausea, % of patients ([2]; APG-1387 45 mg): (7.7%)
- TRAEs (all Grades): Nausea, patients ([2]; APG-1387 45 mg): 1
